Laboratory results published in patent US5618812A, “Benzodiazepine derivatives” (Merck Sharp & Dohme, Ltd., priority 1992, dated 1997).

Tests used:
CCK-A = biological target: T1, CCK-A (Rattus norvegicus, UniProt P30551); assay: biochemical; assay type: binding; details: rat pancreas (CCK-A), 125I-CCK; read-out: CCK RECEPTOR BINDING RESULTS IC50 125I-CCK Pancreas
T1 sequence (P30551 1-444): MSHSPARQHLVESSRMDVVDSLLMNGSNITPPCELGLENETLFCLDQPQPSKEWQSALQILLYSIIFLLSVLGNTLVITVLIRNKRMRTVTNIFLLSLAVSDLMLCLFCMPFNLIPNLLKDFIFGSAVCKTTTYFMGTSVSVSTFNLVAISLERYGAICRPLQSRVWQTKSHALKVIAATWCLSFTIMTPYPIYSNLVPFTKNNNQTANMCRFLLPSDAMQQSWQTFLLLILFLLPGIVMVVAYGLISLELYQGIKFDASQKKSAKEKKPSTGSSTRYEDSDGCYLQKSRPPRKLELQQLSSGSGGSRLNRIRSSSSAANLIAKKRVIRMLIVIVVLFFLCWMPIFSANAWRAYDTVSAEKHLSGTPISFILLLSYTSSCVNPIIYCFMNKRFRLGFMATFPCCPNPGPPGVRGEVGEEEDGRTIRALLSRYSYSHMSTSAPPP
Method: (§1) The CCK-A and CCK-B antagonising activity of the compounds described herein was evaluated using the assays described in published European patent application no. 0514133. The method essentially involves determining the concentration of the test compound required to displace 50% of the specific ^125 I-CCK from rat pancreas (CCK-A) or guinea pig brain (CCK-B).

CCK-B = biological target: T2, CCK-B (Cavia porcellus, UniProt H0VZC5); assay: displacement of specific 125I-CCK from guinea pig brain (CCK-B receptor binding); details: read-out: CCK RECEPTOR BINDING RESULTS IC50 125I-CCK Brain
T2 construct: guinea pig brain (CCK-B); from tissue; host or cells: guinea pig brain
T2 sequence (H0VZC5 1-426): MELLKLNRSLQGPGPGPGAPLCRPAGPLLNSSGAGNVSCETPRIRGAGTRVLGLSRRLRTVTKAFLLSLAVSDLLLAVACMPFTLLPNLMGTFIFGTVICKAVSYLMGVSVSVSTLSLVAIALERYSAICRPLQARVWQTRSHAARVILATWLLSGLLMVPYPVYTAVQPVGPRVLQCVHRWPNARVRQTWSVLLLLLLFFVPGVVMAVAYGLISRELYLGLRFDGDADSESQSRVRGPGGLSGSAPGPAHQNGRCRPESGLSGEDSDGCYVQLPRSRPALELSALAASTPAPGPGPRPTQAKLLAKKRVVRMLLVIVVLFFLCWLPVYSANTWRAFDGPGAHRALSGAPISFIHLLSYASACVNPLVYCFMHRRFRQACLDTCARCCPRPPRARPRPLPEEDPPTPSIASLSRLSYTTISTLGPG
Method: as §1, with “(CCK-B). The data in Table 1 were obtained for compounds of the Examples.” for “(CCK-B).”

Row | IC50 (CCK-A) [nM] | IC50 (CCK-B) [nM] | Compound
1 | > 3000 | 22 | CCCN1C(=O)C(NC(=O)Nc2cccc(C)c2)N=C(N2C[C@@H]3C[C@H]2CN3C)c2ccccc21 (stereo partly drawn) [Example 32, N-[3(R,S)-2,3-Dihydro-5-((1S,4S)-5-methyl-2,5-diazabicyclo-[2,2,1]heptan-2-yl)-2-oxo-1-propyl-1H-1,4-benzodiazepin-3-yl]-N'-[3-methylphenyl]urea]
2 | 101 | 348 | CC(C)CN1C(=O)C(NC(=O)[C@@H]2Cc3ccccc3N2)N=C(N2CCCCCC2)c2ccccc21 (stereo partly drawn) [Example 93, 3(R,S)-N-(2,3-Dihydro-5-(homopiperidin-1-yl)-1-(2-methylpropyl)-2-oxo-1H-1,4-benzodiazepin-3-yl)-(2S)-indoline-2-carboxamide]

Row | Compound | IC50 (CCK-A) [nM] | IC50 (CCK-B) [nM]
3 | (+)-[5-(N-Cycloheptyl-N-methylamino)-2,3-dihydro-1ethyl-2-oxo-1H-1,4-benzodiazepin-3-yl ]-N'-[5-indanyl ]urea Hydrochloride [Example 71] | 145 | 86
